Experiment: molar heat capacity at constant pressure; mn = molality of the nth substance listed, in mol/kg
Details: 100 kPa, Liquid, DSC

O=S(=O)([O-])[O-].[Na+].[Na+] [sodium sulfate] + O
molar heat capacity at constant pressure [J/K/mol]
Details | 253.15 K | 258.15 K | 263.15 K | 268.15 K | 273.15 K | 278.15 K | 283.15 K | 288.15 K | 293.15 K | 298.15 K
m1 = 0.1012 | – | 76.36 | 75.81 | 75.43 | 75.23 | 75.08 | 74.99 | 74.95 | 74.93 | 74.97
m1 = 0.253 | – | 75.13 | 74.91 | 74.72 | 74.63 | 74.57 | 74.55 | 74.57 | 74.57 | 74.63
m1 = 0.501 | – | 74.17 | 74.13 | 74.09 | 74.11 | 74.15 | 74.2 | 74.28 | 74.32 | 74.4
m1 = 0.748 | 73.94 | 73.9 | 73.96 | 74.02 | 74.08 | 74.13 | 74.23 | 74.33 | 74.39 | 74.47
m1 = 1 | 73.97 | 74.01 | 74.15 | 74.21 | 74.31 | 74.39 | 74.49 | 74.62 | 74.68 | 74.76
m1 = 1.33 | 74.4 | 74.53 | 74.72 | 74.84 | 74.95 | 75.03 | 75.11 | 75.22 | 75.28 | 75.37
m1 = 1.517 | – | 74.71 | 74.81 | 75.03 | 75.22 | 75.33 | 75.52 | 75.65 | 75.77 | 75.8
m1 = 2.084 | – | – | – | – | – | – | 77.16 | 77.32 | 77.39 | 77.32

O=S(=O)([O-])[O-].[K+].[K+] [potassium sulfate] + O
molar heat capacity at constant pressure [J/K/mol]
Details | 253.15 K | 258.15 K | 263.15 K | 268.15 K | 273.15 K | 278.15 K | 283.15 K | 288.15 K | 293.15 K | 298.15 K
m1 = 0.1142 | – | – | 75.36 | 75.07 | 74.96 | 74.83 | 74.81 | 74.85 | 74.83 | 74.77
m1 = 0.201 | – | – | 74.67 | 74.5 | 74.48 | 74.33 | 74.39 | 74.45 | 74.46 | 74.43
m1 = 0.296 | – | – | 73.96 | 73.87 | 73.91 | 73.89 | 73.98 | 74.02 | 74.15 | 74.11
m1 = 0.415 | 73.75 | 73.5 | 73.32 | 73.32 | 73.42 | 73.4 | 73.55 | 73.65 | 73.77 | 73.77
m1 = 0.515 | – | 73.06 | 72.94 | 72.98 | 73.12 | 73.16 | 73.33 | 73.41 | 73.53 | 73.53
m1 = 0.606 | – | – | 72.64 | 72.74 | 72.9 | 72.92 | 73.14 | 73.21 | 73.33 | 73.33

O=S(=O)([O-])[O-].[Mg+2] [magnesium sulfate] + O
molar heat capacity at constant pressure [J/K/mol]
Details | m1 = 0.0546 | m1 = 0.1089 | m1 = 0.213 | m1 = 0.526 | m1 = 1.001 | m1 = 1.502 | m1 = 2.012 | m1 = 2.495 | m1 = 2.775
248.15 K | – | – | – | – | – | – | 67.27 | 67.05 | 67.13
253.15 K | – | – | – | – | – | 68.74 | 67.94 | 67.75 | 67.86
258.15 K | – | – | – | 72.91 | – | 69.24 | 68.52 | 68.37 | 68.51
263.15 K | 76.21 | – | – | 72.94 | 70.95 | 69.74 | 69.11 | 68.98 | 69.12
268.15 K | 75.8 | 75.41 | 74.68 | 73 | 71.26 | 70.17 | 69.62 | 69.54 | 69.7
273.15 K | 75.56 | 75.23 | 74.58 | 73.08 | 71.54 | 70.59 | 70.1 | 70.03 | 70.24
278.15 K | 75.36 | 75.07 | 74.49 | 73.15 | 71.78 | 70.94 | 70.49 | 70.46 | 70.7
283.15 K | 75.24 | 74.96 | 74.44 | 73.23 | 71.98 | 71.23 | 70.88 | 70.89 | 71.11
288.15 K | 75.16 | 74.9 | 74.44 | 73.34 | 72.23 | 71.56 | 71.27 | 71.27 | 71.57
293.15 K | 75.09 | 74.85 | 74.42 | 73.44 | 72.41 | 71.83 | 71.57 | 71.63 | 71.94
298.15 K | 75.05 | 74.83 | 74.44 | 73.55 | 72.65 | 72.12 | 71.91 | 72.01 | 72.35
